The source of these data is patent US9073864B2, “Aromatic ring compound” (TAKEDA PHARMACEUTICAL COMPANY LIMITED, priority 2012, dated 2015).

Assay [1] deals with T1, human type glucagon receptor (Homo sapiens, UniProt P47871).
T1 construct: an about 1.4 kb DNA fragment containing glucagon receptor gene was recovered from the gel; expressed in transfected cells; host or cells: FreeStyle CHO cells (transient expression); membrane fraction prepared by homogenisation and ultracentrifugation
The assay can be described thus: Measurement of glucagon binding inhibitory activity ([125I]-glucagon, receptor membrane protein). The following applies: test compound 10 μM; 0.4% DMSO alone = 0%, unlabeled glucagon 1 μM = 100%; read-out: inhibitory rate (%) at 10 μM. The method, then:
The glucagon binding inhibitory action of the compound of the present invention was evaluated by the following method.
(1) Cloning of Human Glucagon Receptor Gene
Human glucagon receptor gene was cloned by PCR reaction using human pancreas Marathon-ready cDNA (Clontech Laboratories, Inc.) as a template and the following primer set.
The PCR reaction was performed using Advantage 2 polymerase (Clontech Laboratories, Inc.) and according to the attached protocol. The obtained PCR product was subjected to agarose gel (1%) electrophoresis, an about 1.4 kb DNA fragment containing glucagon receptor gene was recovered from the gel, and digested with restriction enzymes EcoRI and NotI. The restriction enzyme-treated DNA was subjected to agarose gel (1%) electrophoresis, an about 1.4 kb DNA fragment was recovered and ligated with plasmid pMSRaneo digested with restriction enzymes EcoRI and NotI to give human type glucagon receptor expression plasmid DNA “pMSRaneo/hGCGR”. The base sequence of the inserted fragment was confirmed to be identical with the object sequence.
(2) Preparation of Glucagon Receptor Membrane Protein
Human type glucagon receptor was expressed using FreeStyle CHO Expression System (Invitrogen™). According to the manual attached to the FreeStyle CHO Expression System, and using the human type glucagon receptor expression plasmid DNA “pMSRaneo/hGCGR” produced in the above-mentioned (1), transient expression was performed by FreeStyle CHO cells. The above-mentioned DNA was transfected, and shaking culture was performed at 37° C., 8% CO2, 125 rpm for 2 days. The culture medium was centrifuged at 2,000 rpm for 10 min and the cells were recovered. The recovered cells were washed with PBS, suspended in homogenate buffer [10 mM NaHCO3 (pH 7.4), 1 mM EDTA, complete EDTA-free (Roche, Ltd., 1 tablet/50 ml)], and the cells were disrupted by a Polytron cell disruption apparatus (Kinematica AG). The disruption solution was centrifuged at 2,000 rpm for 10 min, and the supernatant was recovered. The supernatant was centrifuged at 35,000 rpm for 60 min, and the precipitate was suspended in a buffer [20 mM Tris-HCl (pH 7.4), 5 mM EDTA, complete EDTA-free (Roche, Ltd., 1 tablet/50 ml)] to give a glucagon receptor membrane protein.
(3) Measurement of Glucagon Binding Inhibitory Activity
The reaction was started by adding 50 μl of a glucagon receptor membrane protein solution diluted with a reaction buffer [50 mM HEPES (pH 7.4), 5 mM EGTA, 5 mM magnesium chloride, 0.1% BSA, 0.005% Tween20] to 100 μg/ml, 25 μl of a test compound solution containing 0.4% DMSO, which solution was prepared with the reaction buffer to a compound concentration of 40 μM, and 25 μl of radiolabeled glucagon ([^125I]-Receptor Grade Glucagon; Perkin Elmer Inc.) diluted with the reaction buffer to 200 pM to each well of a 96 well plate (Corning Incorporated). The plate was stood at room temperature for 90 min, then the reaction solution was transferred from the reaction plate onto a 96 well unifilter GF/C plate (Perkin Elmer Inc.) by a cell harvester (Perkin Elmer Inc.), and suctioned to collect a membrane fraction on the filter. The filter was immersed in a 0.3% polyethyleneimine solution in advance to prevent non-specific adsorption of the labeled ligand. The filter was washed 4 times with the reaction buffer, and dried at 42° C. for 2 hr. To each well was added 25 μl of scintillator (MicroScint0; Perkin Elmer Inc.), and the amount of fluorescence was measured by a microplate scintillation counter (TopCount NXT™; Perkin Elmer Inc.).
The inhibitory rate (%) of the well added with the test compound (10 μM; containing 0.4% DMSO solution) was calculated wherein the reaction rate of the well added with 0.4% DMSO alone was 0% inhibitory rate and that of the well added with unlabeled glucagon (final concentration 1 μM) was 100% inhibitory rate.

Assay [2] concerns Wistar fatty rat. The assay can be described thus: Hypoglycemic action in Wistar fatty rat (single administration). It counts as in vivo. Particulars: 10 mg/kg oral, 4 hr after administration, male Wistar fatty rats, change relative to non-administration group. The method, then: Hypoglycemic Action in Wistar Fatty Rat (Single Administration)
Wistar fatty rats (male, 25- to 26-week-old) were orally administered with a 0.5% methylcellulose suspension containing a test compound (10 mg/kg body weight) (test compound administration group, 4-6 per group) or 0.5% methylcellulose solution (test compound non-administration group, 4-6 per group), blood samples were collected from the rat tail vein 4 hr after the administration, and the hypoglycemic action was evaluated using the blood. The blood glucose was measured using Model 7180 HITACHI automatic analyzer (Hitachi, Ltd.).
In each animal of the test compound administration group and the test compound non-administration group, changes in the blood glucose level from that before administration was calculated, the difference between the “average change of test compound non-administration group” and the “change in each animal of test compound administration group” was calculated as the “change in blood glucose due to test compound”, and the average of each group was taken as the “blood glucose change value (mg/dL)”.

Assay [3] has as its system streptozotocin (STZ)-induced type 1 diabetes model rat. The assay can be described thus: Suppressive action on hyperglycemia after eating in STZ-induced type 1 diabetes model rat bred with time-limited feeding. Particulars: 10 mg/kg p.o. q.d., detemir 10 U/kg s.c., n=8; for average plasma glucose concentration, 1 hr: 1 hr after administration and start of feeding; for average plasma glucose concentration, 2 hr: 2 hr after administration (immediately before end of feeding); for average plasma glucose concentration, value before administration: next day of 3 days repeated compound administration, immediately before feeding and dosing. It counts as in vivo. The method, then:
Suppressive Action on Hyperglycemia after Eating in Streptozotocin (STZ)-Induced Type 1 Diabetes Model Rat Bred with Time-Limited Feeding
Type 1 diabetes model STZ rat was generated by intravenously administering streptozotocin (STZ: Wako Pure Chemical Industries, Ltd., 65 mg/kg) after overnight fasting. From 1 week after the STZ treatment, time-limited feeding (feeding twice per day for 2 hours each time at 9:00-11:00 am and 16:00-18:00 pm) was started. On day 6 of breeding with time-limited feeding, blood samples were collected immediately before feeding in the morning and after 2 hours of feeding (immediately before end of feeding), and the rats were divided into two groups of detemir (long-acting insulin preparation) treatment group and detemir non-treatment group, with an increase in the plasma glucose concentration associated with the feed intake as an index. In the detemir treatment group, repeated subcutaneous administration of detemir (10 U/kg body weight, Novo Nordisk Pharma Ltd., once per day) was started after the end of feeding in the afternoon, and continued for 7 days until one day before evaluation of the influence of compound administration. Similarly, the detemir non-treatment group was subcutaneously administered repeatedly with saline for 7 days.
The day after repeated administration of detemir for 3 days, blood samples were collected in the same manner as above, and the animals in the detemir treatment group were divided into 3 groups based on an increase in the plasma glucose concentration associated with the feed intake. Each group was orally administered repeatedly with a 0.5% methylcellulose (MC) suspension containing the compound of Example 3 or 21 (10 mg/kg, q.d.) (8 per each group), or 0.5% methylcellulose solution (compound non-administration group, 8) for 4 days before feeding in the morning, starting from the next day of repeated administration of detemir for 4 days.
The next day of repeated administration of detemir for 7 days (the next day of repeated administration of compound for 3 days), blood samples were collected immediately before the start of feeding (and each compound administration) in the morning to obtain values before administration. Also, blood samples were collected after 1 and 2 hours of the administration (immediately before end of feeding), and an influence of compound administration on the profile of plasma glucose concentration after feed intake was evaluated.
Throughout the test, blood samples were collected from the tail vein, and the plasma glucose concentration was measured using Model 7180 HITACHI automatic analyzer.

The structures appear in SMILES notation.

T1 sequence (P47871 26-477): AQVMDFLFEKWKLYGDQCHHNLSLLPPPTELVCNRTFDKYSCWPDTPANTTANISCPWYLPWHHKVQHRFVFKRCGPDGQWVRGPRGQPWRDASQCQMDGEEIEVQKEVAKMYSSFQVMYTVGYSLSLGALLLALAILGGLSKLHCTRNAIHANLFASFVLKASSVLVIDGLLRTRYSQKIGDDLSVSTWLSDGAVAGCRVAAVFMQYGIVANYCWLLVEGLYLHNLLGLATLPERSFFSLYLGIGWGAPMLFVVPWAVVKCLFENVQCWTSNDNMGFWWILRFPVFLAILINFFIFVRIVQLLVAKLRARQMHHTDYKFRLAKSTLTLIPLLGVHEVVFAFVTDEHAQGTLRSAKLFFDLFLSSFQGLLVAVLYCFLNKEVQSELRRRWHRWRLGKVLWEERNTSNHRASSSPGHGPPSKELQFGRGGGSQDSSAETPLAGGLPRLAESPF

Take `Cc1cc(-c2ccc(C(F)(F)F)cn2)ccc1C(CCC(F)(F)F)Nc1ccc(C(=O)N2CCC[C@@H](C(=O)O)C2)cc1` (stereo partly drawn) [Example 1, (3R)-1-(4-((4,4,4-trifluoro-1-(2-methyl-4-(5-(trifluoromethyl)pyridin-2-yl)phenyl)butyl)amino)benzoyl)piperidine-3-carboxylic acid]: in assay [1], the inhibition at 10 µM amounted to 84%. Besides, in assay [2], the “blood glucose change value” is -162.9 mg/dL.

In the case of `Cc1cc(-c2ncc(Cl)cn2)ccc1C(CCC(F)(F)F)Nc1ccc(C(=O)N2CCC[C@@H](C(=O)O)C2)cc1` (stereo partly drawn) [Example 2, (3R)-1-(4-((1-(4-(5-chloropyrimidin-2-yl)-2-methylphenyl)-4,4,4-trifluorobutyl)amino)benzoyl)piperidine-3-carboxylic acid], in assay [1], the inhibition at 10 µM is 92%. For the same compound, in assay [2], the “blood glucose change value” was -149.8 mg/dL.

Take `Cc1cc(-c2ncc(C(F)(F)F)cn2)ccc1C(CCC(F)(F)F)Nc1ccc(C(=O)N2CCC[C@@H](C(=O)O)C2)cc1` (stereo partly drawn) [Example 3, (3R)-1-(4-((4,4,4-trifluoro-1-(2-methyl-4-(5-(trifluoromethyl)pyrimidin-2-yl)phenyl)butyl)amino)benzoyl)piperidine-3-carboxylic acid]: the inhibition at 10 µM in assay [1] was determined as 91%. Further, in assay [2], the “blood glucose change value” is -142.5 mg/dL. In assay [3], the “average plasma glucose concentration, 1 hr” value is 463.6 mg/dL; the “average plasma glucose concentration, 2 hr” value worked out at 555.2 mg/dL; the “average plasma glucose concentration, value before administration” value was found to be 397.0 mg/dL.

On to `CCc1cnc(-c2ccc(C(CCC(F)(F)F)Nc3ccc(C(=O)N4CCC[C@@H](C(=O)O)C4)cc3)c(C)c2)nc1` (stereo partly drawn) [Example 4, (3R)-1-(4-((1-(4-(5-ethylpyrimidin-2-yl)-2-methylphenyl)-4,4,4-trifluorobutyl)amino)benzoyl)piperidine-3-carboxylic acid], for which, in assay [1], the inhibition at 10 µM came to 95%. Further, the “blood glucose change value” in assay [2] was -130.4 mg/dL.

On to `Cc1cc(-n2cc3c(n2)CCCC3)ccc1C(CCC(F)(F)F)Nc1ccc(C(=O)N2CCC[C@@H](C(=O)O)C2)cc1` (stereo partly drawn) [Example 21, (3R)-1-(4-((4,4,4-trifluoro-1-(2-methyl-4-(4,5,6,7-tetrahydro-2H-indazol-2-yl)phenyl)butyl)amino)benzoyl)piperidine-3-carboxylic acid], for which the inhibition at 10 µM in assay [1] turned out to be 90%. Moreover, in assay [2], the “blood glucose change value” is -136.0 mg/dL. Moreover, in assay [3], the “average plasma glucose concentration, 1 hr” value is 471.1 mg/dL; the “average plasma glucose concentration, 2 hr” value was 552.0 mg/dL; the “average plasma glucose concentration, value before administration” value is given as 435.6 mg/dL.

In the case of `O=C(O)[C@@H]1CCCN(C(=O)c2ccc(NC(CCC(F)(F)F)c3ccc(-c4ccccc4)cn3)cc2)C1` (stereo partly drawn) [Example 25, (3R)-1-(4-((4,4,4-trifluoro-1-(5-phenylpyridin-2-yl)butyl)amino)benzoyl)piperidine-3-carboxylic acid], in assay [1], the inhibition at 10 µM was determined as 71%.

In the case of `Cc1cc(-c2ccc(C(F)(F)F)cn2)ccc1C(Nc1ccc(C(=O)N2CCC[C@@H](C(=O)O)C2)cc1)C(C)C` (stereo partly drawn) [Example 26, (3R)-1-(4-((2-methyl-1-(2-methyl-4-(5-(trifluoromethyl)pyridin-2-yl)phenyl)propyl)amino)benzoyl)piperidine-3-carboxylic acid], the inhibition at 10 µM in assay [1] was found to be 88%.

For `O=C(O)[C@@H]1CCCN(C(=O)c2ccc(NC(CCC(F)(F)F)c3ccc(-c4ccc(Cl)cc4)cc3)cc2)C1` (stereo partly drawn) [Example 27, (3R)-1-(4-((1-(4′-chlorobiphenyl-4-yl)-4,4,4-trifluorobutyl)amino)benzoyl)piperidine-3-carboxylic acid], the inhibition at 10 µM in assay [1] turned out to be 86%.

Consider `O=C(O)[C@@H]1CCCN(C(=O)c2ccc(NC(CCC(F)(F)F)c3ccc(-c4ccc(Cl)cc4)cc3)nc2)C1` (stereo partly drawn) [Example 28, (3R)-1-((6-((1-(4′-chlorobiphenyl-4-yl)-4,4,4-trifluorobutyl)amino)pyridin-3-yl)carbonyl)piperidine-3-carboxylic acid], for which the inhibition at 10 µM in assay [1] was found to be 98%.

In the case of `CCc1cnc(-c2ccc(C(Nc3ccc(C(=O)N4CCC[C@@H](C(=O)O)C4)cc3)C(C)C)c(C)c2)nc1` (stereo partly drawn) [Example 112, (3R)-1-(4-((1-(4-(5-ethylpyrimidin-2-yl)-2-methylphenyl)-2-methylpropyl)amino)benzoyl)piperidine-3-carboxylic acid], in assay [1], the inhibition at 10 µM stood at 90%.

On to `Cc1cc(-n2cc3c(n2)CCCC3)ccc1C(Nc1ccc(C(=O)N2CCC[C@@H](C(=O)O)C2)cc1)C(C)C` (stereo partly drawn) [Example 117, (3R)-1-(4-((2-methyl-1-(2-methyl-4-(4,5,6,7-tetrahydro-2H-indazol-2-yl)phenyl)propyl)amino)benzoyl)piperidine-3-carboxylic acid], for which the inhibition at 10 µM in assay [1] is 90%.
